Measurements from US20100048544A1, “PYRROLO (3, 2, 1-IJ) QUINOLINE-4-ONE-DERIVATIVES FOR TREATING TUBERCULOSIS” (priority 2007, published 2010).
Where two headings read alike, the source gives them in different places.

System: Mycobacterium tuberculosis H37Rv
Experiment: Mycobacterium tuberculosis H37Rv inhibition assay (MIC, microtiter plate, alamar blue)
Format: cell-based
Conditions: ATCC 25618 / H37Rv
[1] = H37Rv strain (ATCC25618), Middlebrook 7H9, 37° C. six days, alamar blue fluorescence after 48 hours, read-out: MIC value
[2] = read-out: MIC value, H37Rv strain (ATCC25618), Middlebrook 7H9, 37° C. six days, alamar blue fluorescence after 48 hours

SMILES	MIC [1] [µg/mL]	MIC [2] [µg/mL]
O=c1ccc2ccc(F)c3c2n1CC3CN1CCC(NCc2cc3c(cn2)OCCO3)CC1 (centres unmarked) [Example 2, 1-({4-[(2,3-Dihydro[1,4]dioxino[2,3-c]pyridin-7-ylmethyl)amino]-1-piperidinyl}methyl)-9-fluoro-1,2-dihydro-4H-pyrrolo[3,2,1-ij]quinolin-4-one]	≤ 4	–
O=c1ccc2ccc(F)c3c2n1CC3CN1CC[C@H](NCc2cc3c(cn2)OCC3)[C@H](O)C1 (stereo partly drawn) [Example 8, 1-({(3R,4S)-4-[(2,3-Dihydrofuro[2,3-c]pyridin-5-ylmethyl)amino]-3-hydroxy-1-piperidinyl}methyl)-9-fluoro-1,2-dihydro-4H-pyrrolo [3,2,1-ij]quinolin-4-one]	–	≤ 4
O=c1ccc2ccc(F)c3c2n1CC3CN1CCC(NCc2cnc3c(c2)OCCO3)CC1 (centres unmarked) [Example 22, 1-({4-[(2,3-dihydro[1,4]dioxino[2,3-b]pyridin-7-ylmethyl)amino]-1-piperidinyl}methyl)-9-fluoro-1,2-dihydro-4H-pyrrolo[3,2,1-ij]quinolin-4-one]	–	≤ 4
O=c1ccc2ccc(F)c3c2n1CC3(O)CN1CCC(NCc2cc3c(nn2)OCCS3)CC1 (centres unmarked) [Example 29, 1-({4-[(6,7-Dihydro[1,4]oxathiino[2,3-c]pyridazin-3-ylmethyl)amino]-1-piperidinyl}methyl)-9-fluoro-1-hydroxy-1,2-dihydro-4H-pyrrolo[3,2,1-ij]quinolin-4-one]	≤ 4	–
O=C1COc2cc(Cl)c(CNC[C@H]3CCN(CC4Cn5c(=O)ccc6ccc(F)c4c65)C3)nc2N1 (stereo partly drawn) [Example 33, 1-{[(3R)-3-({[(7-Chloro-3-oxo-3,4-dihydro-2H-pyrido [3,2-b][1,4]oxazin-6-yl)methyl]amino}methyl)-1-pyrrolidinyl]methyl}-9-fluoro-1,2-dihydro-4H-pyrrolo[3,2,1-ij]quinolin-4-one]	≤ 4	–
O=C1COc2ccc(CNC[C@H]3CCN(CC4Cn5c(=O)ccc6ccc(F)c4c65)C3)nc2N1 (stereo partly drawn) [Example 35, 9-Fluoro-1-{[(3R)-3-({[(3-oxo-3,4-dihydro-2H-pyrido[3,2-b][1,4]oxazin-6-yl)methyl]amino}methyl)-1-pyrrolidinyl]methyl}-1,2-dihydro-4H-pyrrolo[3,2,1-ij]quinolin-4-one]	≤ 4	–
O=c1ccc2ccc(F)c3c2n1CC3CN1CCC(NCc2ccc3c(c2)C(O)CCC3)CC1 (centres unmarked) [Example 75, 9-fluoro-1-[(4-{[(8-hydroxy-5,6,7,8-tetrahydro-2-naphthalenyl)methyl]amino}-1-piperidinyl)methyl]-1,2-dihydro-4H-pyrrolo[3,2,1-ij]quinolin-4-one]	≤ 4	–
O=c1ccc2ccc(F)c3c2n1C[C@H]3CN1CCC(NCc2ccc3c(c2F)OCCO3)CC1 [Example 80, (1R)-9-fluoro-1-[(4-{[(5-fluoro-2,3-dihydro-1,4-benzodioxin-6-yl)methyl]amino}-1-piperidinyl)methyl]-1,2-dihydro-4H-pyrrolo[3,2,1-ij]quinolin-4-one]	–	≤ 4
